# Measurements from paper PMC12598616, “Design and optimization of caspase-1-responsive fluorescent probes for pyroptosis imaging and anti-pyroptosis drug screening” (Chemical Science, 2025).
# Test system: Cas-1 in NP cell spheroids
# Experiment: Imaging in nucleus pulposus 3D cell spheroids
# Format: cell-based, rat
# Conditions: H2O2 2 mM 30, 60, 90 min; FPy1 5 μM; compared with 2D cells
# Text: With advancing age, the prevalence of degenerative bone and joint disorders (DBJDs), such as intervertebral disc degeneration (IVDD) and osteoarthritis (OA), increases markedly among middle-aged and elderly individuals.[30] Chronic inflammation has been identified as the underlying cause of DBJDs. In particular, inflammasome-mediated pyroptosis has been recognized as a primary contributor to sustained inflammatory responses.[31] Consequently, pyroptosis-associated biomarkers represent promising indicators for the diagnosis and monitoring of DBJDs. IVDD, a chronic degenerative condition closely related to natural aging, has become one of the leading causes of disability worldwide.[32] […] The imaging results indicated a positive correlation between fluorescence intensity and H2O2-stimulation time (Fig. 4b). […] Encouraged by the promising imaging results of FPy1 in NP cells and cell spheroids, we further assessed its capability for imaging pytoptosis in vivo. […] Following intradiscal injection of FPy1, the fluorescence images of the tail modeling site were obtained from the dorsal aspect. […] Histological scoring result corroborated these findings, reflecting the same trends as with fluorescence imaging observed using FPy1 (Fig. S13b). […]
# The cytotoxicity of FPy1 and YPy1 to THP-1 was evaluated by cell counting kit-8 (CCK-8). […]
substance,measurement,value
"–FLTDG– [FPy1, RhoB donor, hNR quencher]",fluorescence enhancement in NP spheroids,the fluorescence enhancement in the spheroids was more pronounced
